Test results: PubChem BioAssay AID463136 (University of Pittsburgh Molecular Library Screening Center, 2010)
pIC50: −log10 of the molar value. Inconclusive results are not listed. The source made the active and inactive calls. How the calls were made is not given here.

Experiments:
[1] = blockers of dynein-driven microtubule transport – imaging, high-content imaging, dose response (AID 463136); conditions: HCS imaging, dynein-mediated cargo transport inhibition; inhibition at max concentration; at 50 µM; stronger effect = higher value;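 further: mouse mammary adenocarcinoma 3617.4 cells expressing GFP-tagged rat glucocorticoid receptor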; on inhibition: reference of the scale not given here
[2] = tested on: HCS imaging, dynein-mediated cargo transport inhibition; test: as above

Structure (SMILES) | inhibition [1] | pIC50 [2] | IC50 [2]
Cc1ccc(C2=NOC(=O)/C2=C\c2ccc(C)o2)cc1 | 79.8% | 4.40 | –
COC(=O)c1cc(NC(=O)c2ccccc2)c(=O)oc1/C=C/Nc1ccc(Oc2ccccc2)cc1 | 102% | 5.94 | –
CN1CCN(S(=O)(=O)c2ccc(Sc3nnnn3-c3ccccc3)c([N+](=O)[O-])c2)CC1 | 75.4% | 4.76 | –
CC1=NN(c2ccccc2)C(=O)/C1=C/C=C/c1ccccc1 | 22.7% | – | > 50 µM (inactive)
COC(C/C=C/C(=O)COCc1ccccc1)OC | 69.3% | 5.07 | –
O=C1C(Cl)=C(Nc2ccc3cn[nH]c3c2)C(=O)c2ccccc21 | 66.6% | 4.74 | –
CCCCc1cc(O)c(CCCC)c(O)c1 | 76.8% | 5.64 | –
O=C(/C=C/c1ccccc1)/C=C/c1ccccc1 | 45.9% | – | > 50 µM (inactive)
CN(C(=O)CCl)C1CCCc2ccccc21 (centres undefined) | 70.4% | 5.20 | –
N#CC12COC3(CCCCC3C1(C#N)C#N)OC2=N (centres undefined) | 8.2% | – | > 50 µM (inactive)
CC1(C)C(=O)Nc2ccccc2N1C(=O)Cn1ncc(Cl)c(Cl)c1=O | 71.9% | 4.91 | –
CC[n+]1c(/C=C/C=C/N(C(C)=O)c2ccccc2)sc2cc(OC)ccc21 | 93.8% | 5.18 | –
CCN(CC)c1ccc(/C=N/c2sc3c(c2C#N)C2CCN3CC2)c(O)c1 | 82.6% | 4.42 | –
C#CC(=O)N(c1ccc(OC)cc1OC)C(C(=O)NC1CCCC1)c1cccs1 (centres undefined) | 0.987% | – | > 50 µM (inactive)
CC(=O)Nc1c([N+](=O)[O-])cc(C)c(Cl)c1[N+](=O)[O-] | 88.8% | 4.95 | –
Cc1cc(C(=O)CCl)c(C)n1-c1ccon1 | 61.3% | 4.93 | –
O=C(CCl)N(C/C=C/c1ccccc1)c1ccc2c(c1)OCCO2 | 78.1% | 4.57 | –
COc1cc(/C=C(/C(=O)c2cccs2)c2nc3ccccc3[nH]2)cc(OC)c1O | 61.2% | 4.86 | –
COC(=O)c1cc(=O)n(CCc2ccc(OC)cc2)c(=Nc2ccc(F)c(Cl)c2)s1 | 13.5% | – | > 50 µM (inactive)
C=CCn1c(Sc2ncc([N+](=O)[O-])s2)n[nH]c1=O | 62.3% | 4.70 | –
Cc1nnc(NC(=O)c2sc3nc(-c4cccs4)cc(C(F)(F)F)c3c2N)s1 | 154% | 5.66 | –

Structure (SMILES) | inhibition [1] | pIC50 [2] | IC50 [2]
N#C/C(=C/c1ccc(N2CCCCC2)o1)C(=O)Nc1ccc(Cl)cc1 | 97.4% | 4.39 | –
N#Cc1c(C(F)(F)F)cc(-c2ccccc2)nc1SCc1nc(N)nc(N2CCOCC2)n1 | 8.72% | – | > 50 µM (inactive)
COc1ccc(NC(=O)/C(Cl)=C(/Cl)S(=O)Cc2ccc(C)cc2)cn1 (centres undefined) | 54.7% | 4.63 | –
CCC(=O)Nc1cccc(C(=O)/C=C/c2ccc(F)cc2)c1 | 74.9% | 4.47 | –
C=C1C(=O)[C@@]23[C@H](O)C[C@@H]4C(C)(C)CC[C@H](O)[C@]4(C)[C@@H]2C[C@H](O)[C@@H]1[C@H]3O | 54.9% | 5.01 | –
CCCNC(=O)Cn1c(=O)/c(=C\c2ccc(-c3ccc([N+](=O)[O-])cc3)o2)s/c1=C\C(=O)C(C)(C)C | 95.2% | 4.49 | –
COc1cc(C2Oc3ccccc3C=C2[N+](=O)[O-])cc(OC)c1OC (centres undefined) | 63.7% | 4.59 | –
O=C(c1ccc(F)cc1)C(CN1CCOCC1)c1ccccc1 (centres undefined) | 85.7% | 5.15 | –
O=C(c1ccccc1)c1ccccc1N1C(=O)C=CC1=O | 7.43% | – | > 50 µM (inactive)
O=C(c1ccccc1)c1cc(Cl)ccc1N1C(=O)C=CC1=O | 12% | – | > 50 µM (inactive)
CC(=O)/C(=C/c1ccccc1)C(=O)Nc1ccccc1C | 70.1% | 4.80 | –
O=[N+]([O-])c1ccc(/C=C/C2=NN(c3ccccc3)C(c3ccco3)C2)o1 (centres undefined) | 37.1% | – | > 50 µM (inactive)
CCn1c(SCC(=O)N2CCOCC2)nc2oc3c(Cl)cc(Cl)cc3c(=O)c2c1=O | 78.9% | 4.48 | –
Cc1cccc2cc3c(N)c(C(=O)N4CCCc5ccccc54)sc3nc12 | 116% | 4.45 | –
N#C/C(=C\c1cccc([N+](=O)[O-])c1)C(=O)NCc1ccc(Cl)cc1 | 13.8% | – | > 50 µM (inactive)
Cc1ccc(CN=Cc2[nH]c3ccc(Br)c(Cl)c3c2O)cc1 | 99.2% | 5.29 | –
COc1ccc(-c2cc(C(F)(F)F)nc(S(=O)(=O)CCCC(=O)Nc3cc(C)on3)n2)cc1OC | 67.2% | 4.37 | –
CC(C)(C)C(=O)Cn1ncc(Cl)c(Cl)c1=O | 90.6% | 5.10 | –
O=C1NC(=O)N(Cc2ccc(F)cc2)C(=O)/C1=C\C=C\c1ccco1 | 74.8% | 4.51 | –
COc1ccc(C(CCN(Cc2ccc(OC)c(OC)c2)C(=O)CCl)c2ccccc2)cc1 (centres undefined) | 70.4% | 4.43 | –
COCCCn1c(O)c(/C=C2\N=C(C#N)C(=Nc3ccc(C)cc3)O2)sc1=S | 11% | – | > 50 µM (inactive)

Structure (SMILES) | inhibition [1] | pIC50 [2] | IC50 [2]
O=c1cc(N=Nc2ccc(Cl)cc2)[nH]c(=O)[nH]1 | 80.6% | 4.87 | –
O=C(CCl)Nc1cc(-c2ccccc2)nn1-c1ccccc1 | 81.4% | 4.93 | –
CCN1C/C(=C/c2cccc([N+](=O)[O-])c2)C(=O)/C(=C/c2cccc([N+](=O)[O-])c2)C1 | 84.7% | 4.65 | –
CCc1ccc(N2C(=O)NC(=O)/C(=C\C=C\c3ccco3)C2=O)cc1 | 165% | 4.56 | –
N#C/C(=C/c1ccc(N2CCCCCC2)o1)c1ccc(F)cc1 | 33.8% | – | > 50 µM (inactive)
COC(=O)/C=C\C(=O)Nc1cccc([N+](=O)[O-])c1 | 5.31% | – | > 50 µM (inactive)
O=[N+]([O-])c1ccc(-c2ccc(/C=N/Nc3nc(N4CCCCC4)nc(N4CCCCC4)n3)o2)cc1 | 22.5% | – | > 50 µM (inactive)
Cc1ccc(N(C(=O)CCl)C(C(=O)NC2CCCCC2)c2cccnc2)cc1C (centres undefined) | 86.1% | 5.34 | –
COc1ccccc1N1C(=O)CC(Sc2n[nH]c(-c3cccc(C)c3)n2)C1=O (centres undefined) | 5.74% | – | > 50 µM (inactive)
CCN(CC)c1ccc(/C=C2/SC(=O)N(C(C)C)C2=O)o1 | 39.9% | – | > 50 µM (inactive)
Cc1cc(C)c(C)c(S(=O)(=O)ON2C(=O)c3ccccc3C2=O)c1C | -3.7% | – | > 50 µM (inactive)
COc1ccc(-n2ncc(Cl)c(Cl)c2=O)cc1 | 84.7% | 4.67 | –
COc1ccccc1-[n+]1c(C)cc(/C=C2\Sc3ccccc3N2C)cc1C | 92% | 5.03 | –
Cn1cc([N+](=O)[O-])c(C(=O)Nc2cc(Oc3ccccc3)cc([N+](=O)[O-])c2)n1 | 45.9% | – | > 50 µM (inactive)
O=C1CCCCc2sc(Br)c([N+](=O)[O-])c2N1 | 66.9% | 5.15 | –
CCOC(=O)c1c(NC(=O)CCl)sc(CN(C)C)c1-c1ccccc1 | 74.1% | 4.52 | –
CC1CCN(C(=O)c2ccc3c(Cl)c4c(nc3c2)CCCC4)CC1 | 76.6% | 4.67 | –
Cc1nc([N+](=O)[O-])c(Br)n1CC(=O)c1ccc2ccccc2c1 | 81.3% | 5.29 | –
O=C(/C(=C/c1ccc(Cl)cc1)c1nc2ccccc2[nH]1)c1ccccc1 | 21.4% | – | > 50 µM (inactive)
Cc1nn(C)c(C(=O)Sc2cccc(Cl)c2)c1[N+](=O)[O-] | 10.5% | – | > 50 µM (inactive)
Cc1cc(C)cc(N=Cc2[nH]c3ccc(Br)c(Cl)c3c2O)c1 | 122% | 4.56 | –

Structure (SMILES) | inhibition [1] | pIC50 [2] | IC50 [2]
CCCNC(=O)c1nnsc1S(=O)(=O)c1ccc(Cl)cc1 | 69.3% | 5.06 | –
CS(=O)(=O)c1cc([N+](=O)[O-])c(Sc2nc3ccccc3[nH]2)c([N+](=O)[O-])c1 | 22.9% | – | > 50 µM (inactive)
Cc1cccc(N2C(=O)NC(=O)/C(=C\C=C\c3ccco3)C2=O)c1 | 89.4% | 4.48 | –
CCOC(=O)c1cn(-c2c(Cl)cccc2Cl)c2cc(Cl)c([N+](=O)[O-])cc2c1=O | 82.8% | 4.54 | –
CC(C)n1c(O)c(C2c3cc(Cl)ccc3Oc3[nH]c(=O)n(C(C)C)c(=O)c32)c(=O)[nH]c1=O (centres undefined) | 64.2% | 4.87 | –
O=c1c2ccccc2sn1-c1ccccc1 | 90.4% | 4.89 | –
Nc1c(C(=O)c2ccc(Cl)cc2)sc2nsc(SCCN3CCOCC3)c12 | 7.23% | – | > 50 µM (inactive)
COc1ccc(-n2c(C)cc(C(=O)CCl)c2C)cc1 | 80.4% | 4.88 | –
CCOC(=O)C(=Cc1ccc(-n2cncn2)cc1)C(=O)OCC | 89.8% | 4.47 | –
Cc1cccc(N(Cc2ccccc2)C(=O)CCl)c1 | 63.4% | 4.92 | –
Cc1c(C#N)c(NC(=O)CCl)n(Cc2cccs2)c1C | 69.2% | 4.61 | –
Cc1[nH]c2ccccc2c1/C=N/Nc1ccc([N+](=O)[O-])cc1S(=O)(=O)Nc1ccc(Cl)cc1 | 112% | 4.64 | –
O=C1/C(=C/c2ccc(N3CCOCC3)o2)SC(=Nc2ccccc2)N1CCc1c[nH]c2ccccc12 | 95.6% | 5.92 | –
Cn1cc(Br)c(NC(=O)/C=C/C(=O)O)n1 | 6.1% | – | > 50 µM (inactive)
C=CCN1C(=O)NC(=O)/C(=C/C=C/c2ccccc2)C1=O | -33.3% | – | > 50 µM (inactive)
CCCCN(C)C1=CC2=CC(=C(C#N)C#N)CCC2CC1 (centres undefined) | 99.2% | 4.87 | –
O=C1C(Cl)=C(N2CCCCC2)C(=O)C(Cl)=C1c1cnc(N2CCCCC2)s1 | 94.6% | 4.48 | –
CN1CCN(C2=C(Cl)C(=O)C(c3cnc(N4CCCCC4)s3)=C(Cl)C2=O)CC1 | 94.7% | 4.48 | –
N#Cc1cccc(N=c2ssnc2Cl)c1 | 14.7% | – | > 50 µM (inactive)
